Patent US20250375452A1 (AMGEN INC., priority 2021, published 2025)

Key:
[1] = Phase 1 fixed-sequence study, sotorasib with omeprazole under fasted conditions; type: in vivo, human
[2] = tested on: extracellular signal-regulated kinase (ERK); conditions: preclinical studies; cited from earlier work
[3] = Phase 1 fixed-sequence study, sotorasib with rifampin; type: in vivo, human
[4] = Phase 1 fixed-sequence crossover study, sotorasib with famotidine or omeprazole under fed conditions; type: in vivo, human; conditions: for decrease of sotorasib AUC / decrease of sotorasib Cmax: fed conditions
Method: Safety and tolerability monitoring was performed throughout the study.
A total of […] healthy subjects (1 woman and 13 men) were enrolled in the study. Thirteen out of the 14 subjects received all treatments and completed the study.

[5] = Phase 1 fixed-sequence study, digoxin with sotorasib; type: in vivo, human
Method: Blood samples for digoxin PK were collected predose and up to 144 hours post-digoxin dose. Samples were measured using validated high-performance liquid chromatography tandem mass spectrometry methods.

[6] = Phase 1 fixed-sequence study, midazolam with sotorasib; conditions: 2 mg midazolam coadministered with 960 mg sotorasib after 14 days of daily sotorasib vs midazolam alone, 5 subjects
[7] = coadministration with omeprazole vs sotorasib alone, fasted state
[8] = famotidine 10 hours prior to and 2 hours after a single dose of sotorasib
[9] = repeat doses of omeprazole with a single dose of sotorasib
[10] = coadministration with a single dose of sotorasib vs digoxin alone
[11] = with sotorasib vs digoxin alone

## C=CC(=O)N1CCN(c2nc(=O)n(-c3c(C)ccnc3C(C)C)c3nc(-c4c(O)cccc4F)c(F)cc23)[C@@H](C)C1 (atropisomer, axis not shown) [sotorasib, 6-fluoro-7-(2-fluoro-6-hydroxyphenyl)-(1M)-1-[4-methyl-2-(propan-2-yl)pyridin-3-yl]-4-[(2S)-2-methyl-4-(prop-2-enoyl)piperazin-1-yl]pyrido[2,3-d]pyrimidin-2(1H)-one]
[1]; coadministered with 40 mg omeprazole or administered alone, healthy subjects
  safety and tolerability: safe and well tolerated
[1]; [7]
  decrease of sotorasib AUCinf: 42%
  decrease of sotorasib Cmax: 57%
[1]; with omeprazole vs sotorasib alone, fasted
  Mean terminal half-life (t1/2), coadministration compared to alone: similar
[2]
  phosphorylation of extracellular signal-regulated kinase (ERK): inhibited nearly all detectable phosphorylation
[3]; coadministered with 600 mg rifampin or administered alone, healthy subjects
  safety and tolerability: safe and well tolerated
[3]; inferred from multiple doses of rifampin, consistent with in vitro data
  CYP3A4 substrate status: is a CYP3A4 substrate
[3]; inferred from single dose of rifampin
  OATP1B1 substrate status: not a substrate of OATP1B1
[3]; multiple doses of rifampin
  decrease of sotorasib AUCinf: 51%
  decrease of sotorasib Cmax: 35%
[4]; 960 mg sotorasib with single dose 40 mg famotidine and after multiple daily 40 mg omeprazole, fed, healthy subjects
  safety and tolerability: safe and well tolerated
[4]; [8]
  decrease of sotorasib AUC: 38%
  decrease of sotorasib Cmax: 35%
[4]; [9]
  decrease of sotorasib AUC: 57%
  decrease of sotorasib Cmax: 65%

## C[C@H]1O[C@@H](O[C@H]2[C@@H](O)C[C@H](O[C@H]3[C@@H](O)C[C@H](O[C@H]4CC[C@@]5(C)[C@H](CC[C@@H]6[C@@H]5C[C@@H](O)[C@]5(C)[C@@H](C7=CC(=O)OC7)CC[C@]65O)C4)O[C@@H]3C)O[C@@H]2C)C[C@H](O)[C@@H]1O [digoxin]
[5]; [10]
  increase of digoxin AUCinf: approximately 21%
  increase of digoxin Cmax: ~91%
[5]; single doses of 0.5 mg digoxin alone or coadministered with 960 mg sotorasib
  safety and tolerability: safe and well tolerated
[5]; [11]
  Digoxin mean terminal half-life (t1/2), coadministration compared to alone: similar
  Digoxin median time to maximal plasma concentration (tmax), coadministration compared to alone: similar

## Cc1ncc2n1-c1ccc(Cl)cc1C(c1ccccc1F)=NC2 [midazolam]
[6]
  decrease of midazolam AUV: 53%
  decrease of midazolam Cmax: 48%
